Assay results: patent publication US6924282B2, “Sodium salt of an HIV integrase inhibitor” (Merck & Co., Inc., priority 2001, dated 2005)

What was measured:
[1] = oral absorption and pharmacokinetics in animal models; assay type: in vivo; conditions: compared to crystalline Compound A per se
From the text: The present invention is directed to a pharmaceutically acceptable alkali metal salt of an HIV integrase inhibitor.

[2] = oral bioavailability and pharmacokinetics in dogs; assay type: in vivo; conditions: relative to amorphous and crystalline Compound A
[3] = oral bioavailability and pharmacokinetics in rats; assay type: in vivo; conditions: relative to amorphous and crystalline Compound A
[4] = molecular target: recombinant integrase (HIV integrase) (Human immunodeficiency virus type 1 group M subtype B, UniProt P04585); conditions: strand transfer assay of Example 193 of WO 02/30930
From the text: The strand transfer assay is described in Example 193 of WO 02/30930.

[5] = tested on: acute HIV infection of T-lymphoid cells; experiment: assay for the inhibition of acute HIV infection of T-lymphoid cells; assay type: cell-based; conditions: in accordance with Vacca et al., PNAS 1994, 91: 4096-4100
From the text: Compound A is an inhibitor of HIV integrase.

Row | Compound | oral absorption [1] | pharmacokinetics [1] | oral bioavailability [2] | pharmacokinetics (e.g., Cmax and AUC) [2] | oral bioavailability [3] | pharmacokinetics (e.g., Cmax and AUC) [3] | inhibition of integrase strand transfer [4] | inhibition of acute HIV infection of T-lymphoid cells [5]
1 | O=C(NCc1ccc(F)cc1)c1nc(N2CCCCS2(=O)=O)c2cccnc2c1[O-].[Na+] [crystalline sodium salt of Compound A, Sodium salt of 5-(1,1-Dioxido-1,2-thiazinan-2-yl)-N-(4-fluorobenzyl)-8-hydroxy-1,6-naphthyridine-7-carboxamide] | superior oral absorption | improved pharmacokinetics | superior oral bioavailability | improved pharmacokinetics | superior oral bioavailability | improved pharmacokinetics |  | 
2 | O=C(NCc1ccc(F)cc1)c1nc(N2CCCCS2(=O)=O)c2cccnc2c1O [Compound A, 5-(1,1-dioxido-1,2-thiazinan-2-yl)-N-(4-fluorobenzyl)-8-hydroxy-1,6-naphthyridine-7-carboxamide] |  |  |  |  |  |  | potent inhibitor | active
